We go through 25 compounds from patent US6630488B1, “Quinolizinones as integrin inhibitors” (Biochem Pharma, Inc., priority 1998, dated 2003).

In general, IC50 refers to the concentration that gives 50% inhibition.

Experiment [1] addresses T1, placental αvβ3 (Homo sapiens, UniProt P05106+P06756).
T1 construct: purified active GP IIb-IIIa (Calbiochem) or olacental αvβ3 at 0.5 μg/ml; from tissue; host or cells: placenta
Description: Fibrinogen binding to immobilized αvβ3. Conditions: biotinylated-fibrinogen 10 nM, immobilized placental αvβ3; read-out: IC50 values for the fibrinogen binding assay αvβ3. Here is the method: (§1) Nonbound fibrinogen was removed by five washes with binding buffer. Avidin conjugated to alkaline phosphatase (Sigma), diluted in binding buffer, was added and incubated for two hours at 37° C. The plates were washed five times with binding buffer, and after addition of the substrate PNPP (Pierce), the enzyme activity was measured by the absorbance at 405 nm.

For experiment [2], the target named is T2, GP IIb-IIIa (αIIbβ3) (Homo sapiens, UniProt P05106+P08514).
T2 construct: purchased Calbiochem
Description: Fibrinogen binding to immobilized GP IIb-IIIa (αIIbβ3). The following applies: biotinylated-fibrinogen 10 nM, immobilized GP IIb-IIIa; read-out: IC50 values for the fibrinogen binding assay αIIbβ3. Here is the method:
as §1

Structures can show the parent of a compound that is named as a salt.

T2 sequence (P08514 32-887 limits assumed): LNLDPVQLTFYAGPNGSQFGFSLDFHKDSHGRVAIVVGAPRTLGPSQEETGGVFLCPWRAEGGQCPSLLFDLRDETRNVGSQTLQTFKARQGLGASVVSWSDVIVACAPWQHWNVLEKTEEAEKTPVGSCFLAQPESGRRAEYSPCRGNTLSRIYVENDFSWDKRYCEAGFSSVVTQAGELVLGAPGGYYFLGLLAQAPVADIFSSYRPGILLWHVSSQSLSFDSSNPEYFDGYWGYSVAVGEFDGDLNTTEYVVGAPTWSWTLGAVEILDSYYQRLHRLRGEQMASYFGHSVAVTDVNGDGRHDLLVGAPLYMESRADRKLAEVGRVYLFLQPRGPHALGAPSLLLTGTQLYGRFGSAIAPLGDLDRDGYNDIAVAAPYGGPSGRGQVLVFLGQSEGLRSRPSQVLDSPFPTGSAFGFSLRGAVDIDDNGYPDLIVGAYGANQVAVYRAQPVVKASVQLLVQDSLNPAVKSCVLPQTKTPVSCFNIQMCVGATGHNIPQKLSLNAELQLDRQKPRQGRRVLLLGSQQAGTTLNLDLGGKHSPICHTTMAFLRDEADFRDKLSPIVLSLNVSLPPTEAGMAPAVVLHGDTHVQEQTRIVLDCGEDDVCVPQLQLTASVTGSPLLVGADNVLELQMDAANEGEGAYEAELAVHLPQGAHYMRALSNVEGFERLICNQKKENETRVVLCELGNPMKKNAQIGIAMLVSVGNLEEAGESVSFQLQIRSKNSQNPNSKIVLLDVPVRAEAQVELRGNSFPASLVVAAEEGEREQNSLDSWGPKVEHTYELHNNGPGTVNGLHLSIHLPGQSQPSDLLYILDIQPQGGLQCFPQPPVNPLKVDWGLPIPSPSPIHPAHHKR
T2 sequence (P08514 891-1039 partner limits assumed): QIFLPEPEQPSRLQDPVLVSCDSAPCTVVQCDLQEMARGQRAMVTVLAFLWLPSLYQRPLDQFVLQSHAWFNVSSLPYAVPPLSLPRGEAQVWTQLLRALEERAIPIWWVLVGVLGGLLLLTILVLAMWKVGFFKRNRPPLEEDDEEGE
T2 sequence (P05106 27-788): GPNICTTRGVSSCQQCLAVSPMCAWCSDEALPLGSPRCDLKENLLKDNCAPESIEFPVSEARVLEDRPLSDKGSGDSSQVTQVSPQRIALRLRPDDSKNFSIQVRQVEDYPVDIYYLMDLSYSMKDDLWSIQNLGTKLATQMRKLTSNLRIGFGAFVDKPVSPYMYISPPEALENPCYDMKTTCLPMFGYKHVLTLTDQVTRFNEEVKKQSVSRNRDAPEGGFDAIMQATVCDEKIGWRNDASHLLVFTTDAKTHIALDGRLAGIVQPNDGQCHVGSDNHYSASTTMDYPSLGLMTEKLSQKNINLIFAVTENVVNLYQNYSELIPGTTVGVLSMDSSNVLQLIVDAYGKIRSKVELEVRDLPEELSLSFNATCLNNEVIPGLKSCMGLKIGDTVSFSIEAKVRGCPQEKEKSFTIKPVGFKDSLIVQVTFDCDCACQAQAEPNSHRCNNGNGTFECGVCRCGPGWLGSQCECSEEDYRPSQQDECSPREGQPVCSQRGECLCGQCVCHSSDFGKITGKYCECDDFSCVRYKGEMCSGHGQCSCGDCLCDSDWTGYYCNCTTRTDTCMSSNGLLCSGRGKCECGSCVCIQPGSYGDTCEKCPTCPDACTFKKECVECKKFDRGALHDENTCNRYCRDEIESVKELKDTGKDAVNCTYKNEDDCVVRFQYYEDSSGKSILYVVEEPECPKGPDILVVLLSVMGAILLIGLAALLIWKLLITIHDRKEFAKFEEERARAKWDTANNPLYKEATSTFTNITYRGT
T1 sequence (P06756 31-889 limits assumed): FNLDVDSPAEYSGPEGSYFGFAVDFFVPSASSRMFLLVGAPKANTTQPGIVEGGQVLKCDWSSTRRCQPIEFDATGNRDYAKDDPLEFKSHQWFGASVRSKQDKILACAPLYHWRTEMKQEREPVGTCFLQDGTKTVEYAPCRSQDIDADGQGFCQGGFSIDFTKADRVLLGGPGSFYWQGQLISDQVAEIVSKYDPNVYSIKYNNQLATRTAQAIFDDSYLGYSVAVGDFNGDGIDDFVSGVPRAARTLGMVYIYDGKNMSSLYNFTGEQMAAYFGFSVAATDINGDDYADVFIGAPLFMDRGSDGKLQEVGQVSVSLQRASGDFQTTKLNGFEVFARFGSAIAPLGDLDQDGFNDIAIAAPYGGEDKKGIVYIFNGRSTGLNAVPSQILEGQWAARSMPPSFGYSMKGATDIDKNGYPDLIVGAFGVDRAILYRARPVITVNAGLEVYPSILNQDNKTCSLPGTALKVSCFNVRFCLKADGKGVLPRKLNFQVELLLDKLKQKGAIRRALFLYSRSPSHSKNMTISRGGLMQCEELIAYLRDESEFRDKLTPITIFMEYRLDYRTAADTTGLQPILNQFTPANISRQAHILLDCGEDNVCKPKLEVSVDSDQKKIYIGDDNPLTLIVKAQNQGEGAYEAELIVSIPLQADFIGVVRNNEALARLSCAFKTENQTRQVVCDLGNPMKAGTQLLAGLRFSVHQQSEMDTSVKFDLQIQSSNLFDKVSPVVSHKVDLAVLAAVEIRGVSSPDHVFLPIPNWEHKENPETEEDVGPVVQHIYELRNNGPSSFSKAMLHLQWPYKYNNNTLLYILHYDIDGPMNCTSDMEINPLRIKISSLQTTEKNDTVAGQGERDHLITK
T1 sequence (P06756 891-1048 partner limits assumed): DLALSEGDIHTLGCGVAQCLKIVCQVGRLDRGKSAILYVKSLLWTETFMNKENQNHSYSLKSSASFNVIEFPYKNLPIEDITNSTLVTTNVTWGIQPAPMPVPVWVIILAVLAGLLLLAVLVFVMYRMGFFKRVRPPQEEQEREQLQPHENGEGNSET
T1 sequence (P05106 27-788): as the sequence (P05106 27-788) above

As to `NCCCCOc1ccn2c(=O)cc(C(=O)NC[C@H](NS(=O)(=O)c3ccccc3)C(=O)O)cc2c1` [Compound XXXII, (S)-3-{[8-(4-Amino-butoxy)-4-oxo-4H-quinolizine-2-carbonyl]-amino}-2-benzenesulfonylamino-propionic Acid Trifluoroacetic Acid Salt], the IC50 in experiment [1] worked out at 12000 nM; in experiment [2], 5.5 nM.

In the case of `N=C(N)NCc1ccc2cc(C(=O)NC(CC(=O)O)c3cccnc3)cc(=O)n2c1` (racemic) [Compound XLIII, (+/−)-3-[(7-guanidinomethyl-4-oxo-4H-quinolizine-2-carbonyl]-amino)-3-pyridin-3-yl-propionic acid bis-trifluoroacetic acid salt], the IC50 in experiment [1] was 720 nM; in experiment [2] it was 14800 nM.

On to `CN(CCN(C)c1ccn2c(=O)c(C(=O)NC(CC(=O)O)c3ccccc3)ccc2c1)C(=N)N` (racemic) [Compound XXXIX, (+/−)-3-[(8-{Methyl-[2-(N-methyl-guanidino)-ethyl]-amino}-4-oxo-4H-quinolizine-3-carbonyl)-amino]-3-phenyl-propionic Acid Trifluoroacetic Acid Salt], for which the IC50 in experiment [1] stood at 21000 nM; in experiment [2], 63 nM.

On to `N=C(N)NCCCCOc1ccc2cc(C(=O)NC[C@H](NS(=O)(=O)c3ccccc3)C(=O)O)cc(=O)n2c1` [Compound XVIII, (S)-2-Benzenesulfonylamino-3-{[7-(4-guanidino-butoxy)-4-oxo-4H-quinolizine-2-carbonyl]-amino}-propionic Acid Hydrochloride], for which the IC50 in experiment [1] stood at 2200 nM; in experiment [2], 5.3 nM.

With `O=C(NC[C@H](NS(=O)(=O)c1ccccc1)C(=O)O)c1cc(=O)n2cc(OCCCNc3ncccn3)ccc2c1` [Compound XXV, (S)-2-Benzenesulfonylamino-3-({4-oxo-7-[3-(pyrimidin-2-ylamino)-propoxy]-4H-quinolizine-2-carbonyl}-amino)-propionic Acid], the half-inhibitory concentration (IC50) is 15000 nM in experiment [1] and 1250 nM in experiment [2].

As for `N=C(N)NCCCOc1ccc2ccc(NC(=O)NC[C@H](NS(=O)(=O)c3ccccc3)C(=O)O)c(=O)n2c1` [Compound IX, (S)-2-Benzenesulfonylamino-3-{3-[7-(3-guanidino-propoxy)-4-oxo-4H-quinolizin-3-yl]-ureido}-propionic Acid Trifluoroacetate Salt], the IC50 in experiment [1] is 1300 nM; in experiment [2] it was 9.6 nM.

Consider `N=C(N)NCCCCCOc1ccn2c(=O)cc(C(=O)NC[C@H](NS(=O)(=O)c3ccccc3)C(=O)O)cc2c1` [Compound XXXV, (S)2-Benzenesulfonylamino-3-{[8-(5-guanidino-pentyloxy)-4-oxo-4H-quinolizine-2-carbonyl]-amino}propionic Acid Hydrochloride], for which the IC50 in experiment [1] came to 15000 nM; in experiment [2], 1500 nM.

As to `N=C(N)NCCCOc1ccc2cc(C(=O)NCC(Nc3ncccn3)C(=O)O)cc(=O)n2c1` (centres unmarked) [Compound XXII, 3-{[7-(3-Guanidino-propoxy)-4-oxo-4H-quinolizine-2-carbonyl]-amino}-2-(pyrimidin-2-ylamino)-propionic Acid Hydrochloride], the IC50 in experiment [1] stood at 540 nM; in experiment [2], 45 nM.

Take `NCCCCCOc1ccc2ccc(C(=O)NC[C@H](NS(=O)(=O)c3ccccc3)C(=O)O)c(=O)n2c1` [Compound I, (S)-2-Benzenesulfonylamino-3-{[7-(5-aminopentyloxy)-4-oxo-4H-quinolizine-3-carbonyl]-amino}-propionic Acid TFA Salt]: the values for the IC50 in experiment [1] and in experiment [2] were 44000 nM and 58 nM, respectively.

`N=C(N)SCCNc1ccn2c(=O)c(C(=O)NC(CC(=O)O)c3ccccc3)ccc2c1` (racemic) [Compound XXXVII, (+/−)-3-{[8-(2-Carbamimidoylsulfanyl-ethylamino)-4-oxo-4H-quinolizine-3-carbonyl]-amino}-3-phenyl-propionic Acid Trifluoroacetic Acid Salt]: the IC50 in experiment [1] was determined as 8200 nM; in experiment [2], 170 nM.

As for `NCC1CCc2cc(C(=O)NCC(NS(=O)(=O)c3ccccc3)C(=O)O)cc(=O)n2C1` [Compound XXVIII, (2S, 7R) and (2S, 7S)-3-[(7-Aminomethyl-4-oxo-6,7,8,9-tetrahydro-4H-quinolizine-2-carbonyl)-amino]-2-benzenesulfonylamino-propionic Acid Trifluoroacetic Acid Salt], the IC50 in experiment [1] amounted to 370 nM; in experiment [2] it was 100 nM.

Regarding `NCCCOc1ccn2c(=O)cc(C(=O)NC[C@H](NS(=O)(=O)c3ccccc3)C(=O)O)cc2c1` [Compound XXX, (S)-3-{[8-(3-Amino-propoxy)-4-oxo-4H-quinolizine-2-carbonyl]-amino}-2-benzenesulfonylamino-propionic Acid Trifluoroacetic Acid Salt], the IC50 in experiment [1] worked out at 17000 nM; in experiment [2], 110 nM.

Consider `NCCNc1ccn2c(=O)c(C(=O)NC(CC(=O)O)c3ccccc3)ccc2c1` (racemic) [Compound XXXVI, (+/−)-3-{[8-(2-Amino-ethylamino)-4-oxo-4H-quinolizine-3-carbonyl]-amino}-3-phenyl-propionic Acid], for which the IC50 in experiment [1] was found to be 19000 nM; in experiment [2], 10000 nM.

`NCCCCOc1ccc2cc(C(=O)NC[C@H](NS(=O)(=O)c3ccccc3)C(=O)O)cc(=O)n2c1` [Compound XVII, (S)-3-{[7-(4-Amino-butoxy)-4-oxo-4H-quinolizine-2-carbonyl]-amino}-2-benzenesulfonylamino-propionic Acid Trifluoroacetic Acid Salt]: the figures for the IC50 in experiment [1] and in experiment [2] were 5100 nM and 0.17 nM, respectively.

With `N=C(N)NCCCOc1ccn2c(=O)cc(C(=O)NC[C@H](NS(=O)(=O)c3ccccc3)C(=O)O)cc2c1` [Compound XXXI, (S)-2-Benzenesulfonylamino-3-{[8-(3-guanidino-propoxy)-4-oxo-4H-quinolizine-2-carbonyl]-amino)-propionic Acid Hydrochloride], the IC50 in experiment [1] turned out to be 9400 nM; in experiment [2], 24 nM.

For `N=C(N)NCc1ccc2cc(C(=O)NC[C@H](NC(=O)OCc3ccccc3)C(=O)O)cc(=O)n2c1` [Compound XLVIII, (S)-2-Benzyloxycarbonylamino-3-[(7-guanidinomethyl-4-oxo-4H-quinolizine-2-carbonyl)-amino]-propionic acid trifluoroacetic acid salt], the IC50 was found to be 4.9 nM in experiment [1] and 2600 nM in experiment [2].

`NCCCOc1ccc2cc(C(=O)O)cc(=O)n2c1` [Compound XIII, 7-(3-Amino-propoxy)-4-oxo-4H-quinolizine-2-carboxylic Acid Trifluoroacetic Acid Salt]: the results for the IC50 in experiment [1] and in experiment [2] were more than 100000 nM and 5300 nM, respectively.

Take `N=C(N)NCCCCOc1ccn2c(=O)cc(C(=O)NC[C@H](NS(=O)(=O)c3ccccc3)C(=O)O)cc2c1` [Compound XXXIII, (S)-2-Benzenesulfonylamino-3-{[8-(4-guanidino-butoxy)-4-oxo-4H-quinolizine-2-carbonyl]-amino}-propionic Acid Hydrochloride]: the IC50 in experiment [1] is 15000 nM; in experiment [2], 44 nM.

Take `N=C(N)NCCCOc1ccc2ccc(C(=O)NC[C@H](NS(=O)(=O)c3ccccc3)C(=O)O)c(=O)n2c1` [Compound IV, (S)-2-Benzenesulfonylamino-3-{[7-(3-guanidino-propoxy)-4-oxo-4H-quinolizine-3-carbonyl]-amino}-propionic Acid Hydrochloride]: the IC50 in experiment [1] came out at 8700 nM; in experiment [2], 33 nM.

For `N=C(N)NCCCOc1ccc2ccc(NC(=O)NC(CC(=O)O)c3cccnc3)c(=O)n2c1` (racemic) [Compound VIII, (+/−)-3-{3-[7-(3-Guanidino-propoxy)-4-oxo-4H-quinolizin-3-yl]-ureido}-3-pyridin-3-yl-propionic Acid], the IC50 in experiment [1] is 1200 nM; in experiment [2], 3500 nM.

In the case of `N=C(N)NCCCCCOc1ccc2ccc(C(=O)NC[C@H](NS(=O)(=O)c3ccccc3)C(=O)O)c(=O)n2c1` [Compound II, (S)-2-Benzenesulfonylamino-3-{[7-(5-guanidino-pentyloxy)-4-oxo-4H-quinolizine-3-carbonyl]-amino}-propionic Acid Hydrochloride], the IC50 in experiment [1] turned out to be 24000 nM; in experiment [2], 3900 nM.

Turning to `NCCCCCOc1ccn2c(=O)cc(C(=O)NC[C@H](NS(=O)(=O)c3ccccc3)C(=O)O)cc2c1` [Compound XXXIV, (S)-3-{[8-(S-Amino-pentyloxy)-4-oxo-4H-quinolizine-2-carbonyl]-amino}-2-benzenesulfonylamino-propionic Acid Trifluoroacetic Acid Salt], the IC50 in experiment [1] worked out at 17000 nM; in experiment [2], 16 nM.

Consider `CN([C@@H](CNC(=O)c1cc(=O)n2cc(OCCCNC(=N)N)ccc2c1)C(=O)O)S(=O)(=O)c1ccccc1` [Compound XXIV, (S)-2-(Benzenesulfonyl-methyl-amino)-3-{[7-(3-guanidino-propoxy)-4-oxo-4H-quinolizine-2-carbonyl]-amino}-propionic Acid Hydrochloride], for which the IC50 in experiment [1] worked out at 58000 nM; in experiment [2], 1300 nM.

With `N=C(N)NC1CCC(Nc2ccn3c(=O)c(C(=O)NC(CC(=O)O)c4ccccc4)ccc3c2)CC1` (racemic) [Compound XLI, (+/−)-3-{[8-(4-Guanidino-cyclohexylamino)-4-oxo-4H-quinolizine-3-carbonyl]-amino}-3-phenyl-propionic Acid Trifluoroacetic Acid Salt], the IC50 amounted to 17000 nM in experiment [1] and 230 nM in experiment [2].

Take `NCCCOc1ccc2ccc(C(=O)NC[C@H](NS(=O)(=O)c3ccccc3)C(=O)O)c(=O)n2c1` [Compound III, (S)-3-{[7-(3-Amino-propoxy)-4-oxo-4H-quinolizine-3-carbonyl]-amino}-2-benzenesulfonylamino-propionic Acid Trifluoroacetic Acid Salt]: the IC50 in experiment [1] is 96000 nM; in experiment [2] it was 520 nM.
